Test results reported in ChEMBL document CHEMBL5038665, “Identification of the Benzoimidazole Compound as a Selective FLT3 Inhibitor by Cell-Based High-Throughput Screening of a Diversity Library” (J Med Chem, 2022).
Activity calls are given as the source filed them. No cut-off for these calls is given here.

Experiments:
[1] = biological target: T1, Receptor-type tyrosine-protein kinase FLT3 (Mus musculus) (UniProt Q00342); assay: Inhibition of FLT3 phosphorylation in mouse Ba/F3 FLT3-ITD cells assessed as reduction in phosphorylated FLT3 level measured after 12 hrs by western blot analysis; assay type: cell-based
T1 sequence (whole entry): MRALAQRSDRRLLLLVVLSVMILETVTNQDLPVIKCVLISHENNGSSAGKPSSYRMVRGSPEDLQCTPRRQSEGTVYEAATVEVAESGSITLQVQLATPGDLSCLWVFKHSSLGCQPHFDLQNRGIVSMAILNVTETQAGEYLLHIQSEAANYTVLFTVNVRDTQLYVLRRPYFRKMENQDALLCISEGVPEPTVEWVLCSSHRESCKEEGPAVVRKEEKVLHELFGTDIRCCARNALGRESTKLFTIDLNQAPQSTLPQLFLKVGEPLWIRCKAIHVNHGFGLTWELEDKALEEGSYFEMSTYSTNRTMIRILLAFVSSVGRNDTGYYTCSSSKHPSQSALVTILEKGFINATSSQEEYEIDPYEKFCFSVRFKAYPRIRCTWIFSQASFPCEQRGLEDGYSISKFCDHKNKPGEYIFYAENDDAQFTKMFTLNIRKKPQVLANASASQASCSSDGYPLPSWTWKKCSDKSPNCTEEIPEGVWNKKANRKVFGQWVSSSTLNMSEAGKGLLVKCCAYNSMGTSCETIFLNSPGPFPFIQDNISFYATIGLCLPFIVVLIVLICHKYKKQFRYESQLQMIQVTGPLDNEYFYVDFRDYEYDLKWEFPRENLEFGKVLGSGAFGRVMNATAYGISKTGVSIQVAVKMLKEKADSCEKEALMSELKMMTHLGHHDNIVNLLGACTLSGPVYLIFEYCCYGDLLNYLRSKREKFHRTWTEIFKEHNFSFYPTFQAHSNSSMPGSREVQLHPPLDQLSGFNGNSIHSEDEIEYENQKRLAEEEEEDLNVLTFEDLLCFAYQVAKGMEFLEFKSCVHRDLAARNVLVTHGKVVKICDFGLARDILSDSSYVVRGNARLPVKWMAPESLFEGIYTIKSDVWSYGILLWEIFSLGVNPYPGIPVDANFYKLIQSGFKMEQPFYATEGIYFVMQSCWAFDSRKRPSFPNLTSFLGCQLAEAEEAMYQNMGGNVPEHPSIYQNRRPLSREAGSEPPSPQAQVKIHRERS

[2] = biological target: Receptor-type tyrosine-protein kinase FLT3 (Homo sapiens, UniProt P36888, ITD); assay: Inhibition of FLT3-ITD mutant (unknown origin)
[3] = Antiproliferative activity against mouse Ba/F3 FLT3-ITD cells assessed as reduction in cell viability measured after 72 hrs by MTS assay; assay type: functional, cell-based
[4] = biological target: T1, Receptor-type tyrosine-protein kinase FLT3 (Mus musculus); assay: Inhibition of FLT3-mediated signalling pathway in mouse Ba/F3 FLT3-ITD cells assessed as inhibition of MAPK phosphorylation at 50 nM by western blot analysis; assay type: cell-based; conditions: TDE = time-dependent effect
HL-60 = assay: Antiproliferative activity against human HL-60 cells expressing wild type FLT3 assessed as reduction in cell viability measured after 72 hrs by MTS assay; assay type: functional, cell-based; conditions: HL-60, 72 h
[5] = biological target: T1, Receptor-type tyrosine-protein kinase FLT3 (Mus musculus); assay: Inhibition of FLT3-mediated signalling pathway in mouse Ba/F3 FLT3-ITD cells assessed as inhibition of STAT5 phosphorylation at 50 nM by western blot analysis; assay type: cell-based
[6] = biological target: Receptor-type tyrosine-protein kinase FLT3 (Homo sapiens) (UniProt P36888); assay: Inhibition of FLT3 phosphorylation in human MOLM-13 cells assessed as reduction in phosphorylated FLT3 level at 0.3 to 100 nM by sandwich ELISA assay; assay type: cell-based; conditions: dose 0.3-100 nM
Monocyte = assay: Antiproliferative activity against human peripheral blood monocyte cells assessed as cell growth inhibition at 6 to 200 uM measured after 72 hrs by MTS assay; assay type: toxicity, cell-based; conditions: dose 6-200 µM
[7] = biological target: Receptor-type tyrosine-protein kinase FLT3 (Homo sapiens) (UniProt P36888); assay: Inhibition of FLT3 phosphorylation in human MV4-11 cells assessed as reduction in phosphorylated FLT3 level measured after 12 hrs by western blot analysis; assay type: cell-based
[8] = biological target: T2, Receptor-type tyrosine-protein kinase FLT3 (Homo sapiens, UniProt P36888); assay: Inhibition of FLT3 (unknown origin)
T2 sequence (P36888 whole entry): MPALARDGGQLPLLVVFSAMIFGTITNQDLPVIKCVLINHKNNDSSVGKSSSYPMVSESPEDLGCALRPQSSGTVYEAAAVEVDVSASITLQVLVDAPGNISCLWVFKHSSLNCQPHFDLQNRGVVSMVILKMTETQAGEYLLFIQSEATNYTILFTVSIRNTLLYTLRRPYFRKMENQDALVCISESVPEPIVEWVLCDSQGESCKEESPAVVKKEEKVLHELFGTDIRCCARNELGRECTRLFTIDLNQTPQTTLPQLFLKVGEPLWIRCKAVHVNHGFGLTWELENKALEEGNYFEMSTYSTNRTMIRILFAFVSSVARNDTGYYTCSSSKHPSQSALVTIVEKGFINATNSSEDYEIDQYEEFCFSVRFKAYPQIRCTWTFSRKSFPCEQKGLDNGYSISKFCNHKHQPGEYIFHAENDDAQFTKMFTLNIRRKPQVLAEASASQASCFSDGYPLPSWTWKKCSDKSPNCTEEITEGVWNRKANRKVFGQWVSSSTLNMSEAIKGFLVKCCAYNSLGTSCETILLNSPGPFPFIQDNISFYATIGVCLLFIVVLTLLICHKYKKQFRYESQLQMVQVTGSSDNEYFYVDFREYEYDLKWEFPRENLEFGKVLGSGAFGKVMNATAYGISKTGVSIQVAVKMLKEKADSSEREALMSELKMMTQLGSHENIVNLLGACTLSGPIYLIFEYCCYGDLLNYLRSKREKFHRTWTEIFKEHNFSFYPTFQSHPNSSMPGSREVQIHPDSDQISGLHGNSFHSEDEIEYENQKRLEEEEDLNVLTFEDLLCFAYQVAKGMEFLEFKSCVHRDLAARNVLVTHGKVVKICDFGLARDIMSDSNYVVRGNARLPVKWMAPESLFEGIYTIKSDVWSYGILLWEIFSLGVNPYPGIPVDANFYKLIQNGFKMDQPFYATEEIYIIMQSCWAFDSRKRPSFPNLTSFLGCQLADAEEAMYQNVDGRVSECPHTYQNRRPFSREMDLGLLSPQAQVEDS

MOLM-13 = assay: Antiproliferative activity against human MOLM-13 cells harboring FLT3-ITD mutant assessed as reduction in cell viability measured after 72 hrs by MTS assay; assay type: functional, cell-based; conditions: MOLM-13, 72 h
[9] = Antiproliferative activity against mouse BaF3 cells expressing wild type FLT3 assessed as reduction in cell viability measured after 72 hrs by MTS assay; assay type: toxicity, cell-based
[10] = biological target: T1, Receptor-type tyrosine-protein kinase FLT3 (Mus musculus); assay: Inhibition of FLT3 phosphorylation in mouse Ba/F3 FLT3-ITD cells assessed as reduction in phosphorylated FLT3 level at 0.3 to 100 nM by sandwich ELISA assay; assay type: cell-based; conditions: dose 0.3-100 nM
[11] = biological target: Fibroblast growth factor receptor 1 (Homo sapiens, UniProt P11362); assay: Inhibition of FGFR1 (unknown origin)
Fibroblast growth factor receptor 1, sequence (P11362 whole entry): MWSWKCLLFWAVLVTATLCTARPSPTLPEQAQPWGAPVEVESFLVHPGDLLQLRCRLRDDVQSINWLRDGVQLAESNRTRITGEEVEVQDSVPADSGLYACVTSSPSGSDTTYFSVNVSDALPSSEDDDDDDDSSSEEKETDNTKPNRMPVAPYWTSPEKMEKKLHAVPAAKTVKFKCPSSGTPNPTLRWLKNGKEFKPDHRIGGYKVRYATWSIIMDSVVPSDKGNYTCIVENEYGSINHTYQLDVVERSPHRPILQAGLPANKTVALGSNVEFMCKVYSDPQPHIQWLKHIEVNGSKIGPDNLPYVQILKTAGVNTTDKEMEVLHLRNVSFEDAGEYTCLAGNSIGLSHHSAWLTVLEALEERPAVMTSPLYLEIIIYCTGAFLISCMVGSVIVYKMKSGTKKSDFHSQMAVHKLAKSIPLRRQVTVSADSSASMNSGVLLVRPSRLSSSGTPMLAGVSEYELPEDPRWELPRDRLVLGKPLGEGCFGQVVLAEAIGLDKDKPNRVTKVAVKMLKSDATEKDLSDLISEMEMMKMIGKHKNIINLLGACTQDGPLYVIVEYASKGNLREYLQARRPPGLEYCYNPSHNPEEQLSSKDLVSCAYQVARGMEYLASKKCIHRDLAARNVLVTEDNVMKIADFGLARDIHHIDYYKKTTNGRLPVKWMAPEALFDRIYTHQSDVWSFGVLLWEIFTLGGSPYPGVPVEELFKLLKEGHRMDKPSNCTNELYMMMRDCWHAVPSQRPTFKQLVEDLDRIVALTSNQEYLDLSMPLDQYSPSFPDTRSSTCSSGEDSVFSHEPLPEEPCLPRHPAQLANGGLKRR

[12] = Antiproliferative activity against human ML-1 cells expressing wild type FLT3 assessed as reduction in cell viability measured after 72 hrs by MTS assay; assay type: functional, cell-based; conditions: ML1, 72 h
[13] = biological target: Receptor-type tyrosine-protein kinase FLT3 (Homo sapiens) (UniProt P36888); assay: Inhibition of FLT3-mediated signalling pathway in human MV4-11 cells assessed as inhibition of STAT5 phosphorylation at 50 nM by western blot analysis; assay type: cell-based; conditions: TDE = time-dependent effect
[14] = biological target: Receptor-type tyrosine-protein kinase FLT3 (Homo sapiens) (UniProt P36888); assay: Inhibition of FLT3 phosphorylation in human MV4-11 cells assessed as reduction in phosphorylated FLT3 level at 0.3 to 100 nM by sandwich ELISA assay; assay type: cell-based; conditions: dose 0.3-100 nM
[15] = biological target: Mast/stem cell growth factor receptor Kit (Homo sapiens, UniProt P10721); assay: Inhibition of KIT (unknown origin)
Mast/stem cell growth factor receptor Kit, sequence (P10721 whole entry): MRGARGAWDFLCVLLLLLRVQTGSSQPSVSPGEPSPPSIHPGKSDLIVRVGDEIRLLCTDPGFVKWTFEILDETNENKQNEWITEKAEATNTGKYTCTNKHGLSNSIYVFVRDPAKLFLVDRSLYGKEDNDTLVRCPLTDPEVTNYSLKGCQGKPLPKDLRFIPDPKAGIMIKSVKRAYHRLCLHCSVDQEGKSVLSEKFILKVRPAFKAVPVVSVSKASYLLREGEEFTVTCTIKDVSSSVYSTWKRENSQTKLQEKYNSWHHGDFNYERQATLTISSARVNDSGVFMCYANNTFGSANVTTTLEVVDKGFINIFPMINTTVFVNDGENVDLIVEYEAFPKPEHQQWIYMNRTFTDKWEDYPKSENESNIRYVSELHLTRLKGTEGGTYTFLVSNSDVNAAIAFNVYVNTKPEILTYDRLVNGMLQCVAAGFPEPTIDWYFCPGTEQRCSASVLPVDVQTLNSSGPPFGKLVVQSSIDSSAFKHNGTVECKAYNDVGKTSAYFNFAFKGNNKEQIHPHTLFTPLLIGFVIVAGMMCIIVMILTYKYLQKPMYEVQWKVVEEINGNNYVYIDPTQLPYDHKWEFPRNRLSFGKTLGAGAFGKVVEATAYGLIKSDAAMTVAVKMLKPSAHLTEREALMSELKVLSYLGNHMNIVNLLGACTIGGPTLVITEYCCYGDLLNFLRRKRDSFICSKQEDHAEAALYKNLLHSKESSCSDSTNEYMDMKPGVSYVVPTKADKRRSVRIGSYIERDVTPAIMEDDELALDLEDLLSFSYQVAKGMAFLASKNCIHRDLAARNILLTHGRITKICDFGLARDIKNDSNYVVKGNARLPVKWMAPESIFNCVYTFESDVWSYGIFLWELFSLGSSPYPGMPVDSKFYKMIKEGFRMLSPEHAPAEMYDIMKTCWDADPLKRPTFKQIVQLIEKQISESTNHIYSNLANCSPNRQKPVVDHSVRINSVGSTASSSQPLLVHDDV

[16] = biological target: Receptor-type tyrosine-protein kinase FLT3 (Homo sapiens) (UniProt P36888); assay: Inhibition of FLT3-mediated signalling pathway in human MV4-11 cells assessed as inhibition of MAPK phosphorylation at 50 nM by western blot analysis; assay type: cell-based; conditions: TDE = time-dependent effect
[17] = biological target: Serine/threonine-protein kinase B-raf (Homo sapiens, UniProt P15056); assay: Inhibition of BRAF (unknown origin)
Serine/threonine-protein kinase B-raf, sequence (P15056 whole entry): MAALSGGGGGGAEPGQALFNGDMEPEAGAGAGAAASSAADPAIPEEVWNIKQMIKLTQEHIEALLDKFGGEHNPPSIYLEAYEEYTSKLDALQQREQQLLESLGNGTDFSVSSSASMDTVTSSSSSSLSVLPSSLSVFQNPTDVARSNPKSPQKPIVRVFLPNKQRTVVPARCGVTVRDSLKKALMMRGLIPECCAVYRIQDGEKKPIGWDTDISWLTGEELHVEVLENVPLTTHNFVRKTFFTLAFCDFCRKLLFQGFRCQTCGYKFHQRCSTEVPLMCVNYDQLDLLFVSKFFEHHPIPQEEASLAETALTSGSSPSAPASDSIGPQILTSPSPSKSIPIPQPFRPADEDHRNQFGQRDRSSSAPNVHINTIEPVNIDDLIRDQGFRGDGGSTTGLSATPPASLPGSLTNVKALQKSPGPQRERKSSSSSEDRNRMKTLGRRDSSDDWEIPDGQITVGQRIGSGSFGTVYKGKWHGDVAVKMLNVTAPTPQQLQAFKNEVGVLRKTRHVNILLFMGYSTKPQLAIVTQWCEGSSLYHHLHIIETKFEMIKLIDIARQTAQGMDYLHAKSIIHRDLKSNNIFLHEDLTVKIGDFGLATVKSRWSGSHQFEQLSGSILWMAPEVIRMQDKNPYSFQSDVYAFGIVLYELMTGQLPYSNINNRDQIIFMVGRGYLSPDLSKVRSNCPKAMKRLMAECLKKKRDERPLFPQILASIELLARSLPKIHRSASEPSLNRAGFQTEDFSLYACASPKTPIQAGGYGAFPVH

MV4-11 = assay: Antiproliferative activity against human MV4-11 cells harboring FLT3-ITD mutant assessed as reduction in cell viability measured after 72 hrs ny MTS assay; assay type: functional, cell-based; conditions: MV4-11, 72 h

IC50 (HL-60) [nM]	IC50 (MOLM-13) [nM]	IC50 (MV4-11) [nM]	SMILES	IC50 [3] [nM]	IC50 at 72 h [9] [nM]	IC50 [12] [nM]	also measured
> 50000	113	189	COc1ccc(CNc2ccc3c(c2)ncn3-c2ccccc2)cc1OC	94.8	> 400	> 50000	Activity [1]: 10 nM; IC50 [2]: 90 nM; inhibition [4]: Tde; inhibition [5]: Active; inhibition [6]: Active; Activity (Monocyte): Not Active; Activity [7]: 1 nM; IC50 [8]: 30 nM; inhibition [10]: Active; IC50 [11]: > 1000 nM; inhibition [13]: Tde; inhibition [14]: Active; IC50 [15]: 451 nM; inhibition [16]: Tde; IC50 [17]: > 1000 nM
> 50000	69.8	167	OCCOc1ccc(CNc2ccc3c(c2)ncn3-c2ccccc2)cc1OCCO	77.8	> 400	> 50000	
> 50000	78.2	197	COc1ccc(CNc2ccc3c(c2)ncn3-c2ccccc2)cc1OCCO	75.4	> 400	> 50000	
500			CNC(=O)c1cc(Oc2ccc(NC(=O)Nc3ccc(Cl)c(C(F)(F)F)c3)cc2)ccn1 [SORAFENIB]			500	
